Laboratory results reported in patent US12371454B2, “Cyclic peptide compound having Kras inhibitory action” (priority 2019, dated 2025).
Starred links: 1 amine or outer side, 2 acyl side, 3 side chain; linkers in the order of their positions; H or OH if unused. Positions of bridges follow the written chain, without caps; N, C: chain ends. Non-standard residues stand in square brackets, D forms with d. Residues, ends and D or L forms follow the SMILES beside them. *: point of attachment. hPhe(3-Cl-4-CF3) = N[C@@H](CCc1ccc(C(F)(F)F)c(Cl)c1)C(=O)O; hPhe(3-F,4-CF3) = N[C@@H](CCc1ccc(C(F)(F)F)c(F)c1)C(=O)O; mXylylene = c1cc(C[*:1])cc(C[*:2])c1; oXylylene = c1ccc(C[*:2])c(C[*:1])c1; NMeCha = CN[C@@H](CC1CCCCC1)C(=O)O; cisHyp = O=C(O)[C@@H]1C[C@H](O)CN1; Hyp = O=C(O)[C@@H]1C[C@@H](O)CN1; NMeChg = CN[C@H](C(=O)O)C1CCCCC1; NMeD = CN[C@@H](CC(=O)O)C(=O)O; Benzyl(4-Cl) = Clc1ccc(C*)cc1; NMeL = CN[C@@H](CC(C)C)C(=O)O; NMehSer = CN[C@@H](CCO)C(=O)O; Piperidide = C1CCN(*)CC1; X45 = FC(F)Oc1ccc(C*)cc1; Ac5c = NC1(C(=O)O)CCCC1; Ethyl(2,2-F2) = FC(F)C*; X30 = COc1cccc(C*)c1; Meb = Cc1ccc(C*)cc1; Ethyl(2-OH) = OCC*; X27 = Clc1ccccc1C*; X36 = c1cc(C*)cs1; Sar = CNCC(=O)O

tested on: Human pancreatic cancer cell line AsPC-1; assay: Measurement of AsPC-1 cell growth inhibition (AsPC-1 CGI); type: cell-based; details: 96 h
Outline: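 AsPC-1 cells in 15% FBS RPMI-1640 were exposed to test compound for 96 hours at 37° C, with CellTiter-Glo as endpoint.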

Structure (SMILES) | IC50 [nM]
CC[C@H](C)[C@@H]1NC(=O)[C@H](CC(C)C)N(C)C(=O)C[C@@H](C(=O)N2CCCCC2)N(C)C(=O)[C@H](C2CCCCC2)N(C)C(=O)C2(CCCC2)NC(=O)[C@@H]2C[C@@H](OCCO)CN2C(=O)[C@H](CCc2ccc(C(F)(F)F)c(Cl)c2)NC(=O)CN(C)C(=O)[C@H](CC2CCCCC2)N(C)C(=O)CN(C)C(=O)CN(C)C1=O [Compound 2122, (3S,9S,18S,21S,25S,28S,34S,36R)-3-[2-[3-chloro-4-(trifluoromethyl)phenyl]ethyl]-28-cyclohexyl-9-(cyclohexylmethyl)-36-(2-hydroxyethoxy)-21-isobutyl-7,10,13,16,22,26,29-heptamethyl-18-[(1S)-1-methylpropyl]-25-(piperidine-1-carbonyl)spiro[1,4,7,10,13,16,19,22,26,29,32-undecazabicyclo[32.3.0]heptatriacontane-31,1′-cyclopentane]-2,5,8,11,14,17,20,23,27,30,33-undecone] ([NMeL]I[Sar][Sar][NMeCha][Sar][hPhe(3-Cl-4-CF3)][Hyp](Ethyl(2-OH))[Ac5c][NMeChg][NMeD]-Piperidide; lactam N-11) | 50 to 100
CC[C@H](C)[C@@H]1NC(=O)[C@H](CC(C)C)N(C)C(=O)C[C@@H](C(=O)N2CCCCC2)N(C)C(=O)[C@H](C2CCCCC2)N(C)C(=O)C2(CCCC2)NC(=O)[C@@H]2C[C@H](OCC(F)F)CN2C(=O)[C@H](CCc2ccc(C(F)(F)F)c(Cl)c2)NC(=O)CN(C)C(=O)[C@H](CC2CCCCC2)N(C)C(=O)CN(C)C(=O)CN(C)C1=O [Compound 2123] ([NMeL]I[Sar][Sar][NMeCha][Sar][hPhe(3-Cl-4-CF3)][cisHyp](Ethyl(2,2-F2))[Ac5c][NMeChg][NMeD]-Piperidide; lactam N-11) | 100 to 500
CC[C@H](C)[C@@H]1NC(=O)[C@H](CC(C)C)N(C)C(=O)C[C@@H](C(=O)N2CCCCC2)N(C)C(=O)[C@H](C2CCCCC2)N(C)C(=O)C2(CCCC2)NC(=O)[C@@H]2C[C@@H](OCc3ccsc3)CN2C(=O)[C@H](CCc2ccc(C(F)(F)F)c(Cl)c2)NC(=O)CN(C)C(=O)[C@H](CC2CCCCC2)N(C)C(=O)CN(C)C(=O)CN(C)C1=O [Compound 2124] ([NMeL]I[Sar][Sar][NMeCha][Sar][hPhe(3-Cl-4-CF3)][Hyp](X36)[Ac5c][NMeChg][NMeD]-Piperidide; lactam N-11) | 100 to 500
CC[C@H](C)[C@@H]1NC(=O)[C@H](CC(C)C)N(C)C(=O)C[C@@H](C(=O)N2CCCCC2)N(C)C(=O)[C@H](CC(C)C)N(C)C(=O)C2(CCCC2)NC(=O)[C@@H]2C[C@@H](OCc3cccc(C)c3)CN2C(=O)[C@H](CCc2ccc(C(F)(F)F)c(F)c2)NC(=O)CN(C)C(=O)[C@H](CC2CCCCC2)N(C)C(=O)CN(C)C(=O)CN(C)C1=O [Compound 2125] ([NMeL]I[Sar][Sar][NMeCha][Sar][hPhe(3-F,4-CF3)][Hyp](mXylylene)[Ac5c][NMeL][NMeD]-Piperidide; lactam N-11) | > 500
CC[C@H](C)[C@@H]1NC(=O)[C@H](CC(C)C)N(C)C(=O)C[C@@H](C(=O)N2CCCCC2)N(C)C(=O)[C@H](CC(C)C)N(C)C(=O)C2(CCCC2)NC(=O)[C@@H]2C[C@@H](OCc3ccc(OC(F)F)cc3)CN2C(=O)[C@H](CCc2ccc(C(F)(F)F)c(F)c2)NC(=O)CN(C)C(=O)[C@H](CC2CCCCC2)N(C)C(=O)CN(C)C(=O)CN(C)C1=O [Compound 2128] ([NMeL]I[Sar][Sar][NMeCha][Sar][hPhe(3-F,4-CF3)][Hyp](X45)[Ac5c][NMeL][NMeD]-Piperidide; lactam N-11) | > 500
CC[C@H](C)[C@@H]1NC(=O)[C@H](CC(C)C)N(C)C(=O)C[C@@H](C(=O)N2CCCCC2)N(C)C(=O)[C@H](CC(C)C)N(C)C(=O)C2(CCCC2)NC(=O)[C@@H]2C[C@H](OCc3ccc(Cl)cc3)CN2C(=O)[C@H](CCc2ccc(C(F)(F)F)c(F)c2)NC(=O)CN(C)C(=O)[C@H](CC2CCCCC2)N(C)C(=O)CN(C)C(=O)CN(C)C1=O [Compound 2129] ([NMeL]I[Sar][Sar][NMeCha][Sar][hPhe(3-F,4-CF3)][cisHyp](Benzyl(4-Cl))[Ac5c][NMeL][NMeD]-Piperidide; lactam N-11) | > 500
CC[C@H](C)[C@@H]1NC(=O)[C@H](CC(C)C)N(C)C(=O)C[C@@H](C(=O)N2CCCCC2)N(C)C(=O)[C@H](CC(C)C)N(C)C(=O)C2(CCCC2)NC(=O)[C@@H]2C[C@@H](OCc3ccc(C)cc3)CN2C(=O)[C@H](CCc2ccc(C(F)(F)F)c(F)c2)NC(=O)CN(C)C(=O)[C@H](CC2CCCCC2)N(C)C(=O)CN(C)C(=O)CN(C)C1=O [Compound 2130] ([NMeL]I[Sar][Sar][NMeCha][Sar][hPhe(3-F,4-CF3)][Hyp](Meb)[Ac5c][NMeL][NMeD]-Piperidide; lactam N-11) | > 500
CC[C@H](C)[C@@H]1NC(=O)[C@H](CC(C)C)N(C)C(=O)C[C@@H](C(=O)N2CCCCC2)N(C)C(=O)[C@H](CC(C)C)N(C)C(=O)C2(CCCC2)NC(=O)[C@@H]2C[C@@H](OCc3cccc(OC)c3)CN2C(=O)[C@H](CCc2ccc(C(F)(F)F)c(F)c2)NC(=O)CN(C)C(=O)[C@H](CC2CCCCC2)N(C)C(=O)CN(C)C(=O)CN(C)C1=O [Compound 2131] ([NMeL]I[Sar][Sar][NMeCha][Sar][hPhe(3-F,4-CF3)][Hyp](X30)[Ac5c][NMeL][NMeD]-Piperidide; lactam N-11) | 100 to 500
CC[C@H](C)[C@@H]1NC(=O)[C@H](CC(C)C)N(C)C(=O)C[C@@H](C(=O)N2CCCCC2)N(C)C(=O)[C@H](CC(C)C)N(C)C(=O)C2(CCCC2)NC(=O)[C@@H]2C[C@H](OCc3ccccc3Cl)CN2C(=O)[C@H](CCc2ccc(C(F)(F)F)c(F)c2)NC(=O)CN(C)C(=O)[C@H](CC2CCCCC2)N(C)C(=O)CN(C)C(=O)CN(C)C1=O [Compound 2132] ([NMeL]I[Sar][Sar][NMeCha][Sar][hPhe(3-F,4-CF3)][cisHyp](X27)[Ac5c][NMeL][NMeD]-Piperidide; lactam N-11) | > 500
CC[C@H](C)[C@@H]1NC(=O)[C@H](CC(C)C)N(C)C(=O)C[C@@H](C(=O)N2CCCCC2)N(C)C(=O)[C@H](CC(C)C)N(C)C(=O)C2(CCCC2)NC(=O)[C@@H]2C[C@H](OCc3ccc(OC(F)F)cc3)CN2C(=O)[C@H](CCc2ccc(C(F)(F)F)c(F)c2)NC(=O)CN(C)C(=O)[C@H](CC2CCCCC2)N(C)C(=O)CN(C)C(=O)CN(C)C1=O [Compound 2135] ([NMeL]I[Sar][Sar][NMeCha][Sar][hPhe(3-F,4-CF3)][cisHyp](X45)[Ac5c][NMeL][NMeD]-Piperidide; lactam N-11) | > 500
CC[C@H](C)[C@@H]1NC(=O)[C@H](CC(C)C)N(C)C(=O)C[C@@H](C(=O)N2CCCCC2)N(C)C(=O)[C@H](CC(C)C)N(C)C(=O)C2(CCCC2)NC(=O)[C@@H]2C[C@H](OCc3cccc(OC)c3)CN2C(=O)[C@H](CCc2ccc(C(F)(F)F)c(F)c2)NC(=O)CN(C)C(=O)[C@H](CC2CCCCC2)N(C)C(=O)CN(C)C(=O)CN(C)C1=O [Compound 2136] ([NMeL]I[Sar][Sar][NMeCha][Sar][hPhe(3-F,4-CF3)][cisHyp](X30)[Ac5c][NMeL][NMeD]-Piperidide; lactam N-11) | > 500
CC[C@H](C)[C@@H]1NC(=O)[C@H](CC(C)C)N(C)C(=O)C[C@@H](C(=O)N2CCCCC2)N(C)C(=O)[C@H](CC(C)C)N(C)C(=O)C2(CCCC2)NC(=O)[C@@H]2C[C@H](OCc3ccccc3C)CN2C(=O)[C@H](CCc2ccc(C(F)(F)F)c(F)c2)NC(=O)CN(C)C(=O)[C@H](CC2CCCCC2)N(C)C(=O)CN(C)C(=O)CN(C)C1=O [Compound 2137] ([NMeL]I[Sar][Sar][NMeCha][Sar][hPhe(3-F,4-CF3)][cisHyp](oXylylene)[Ac5c][NMeL][NMeD]-Piperidide; lactam N-11) | > 500
CC[C@H](C)[C@@H]1NC(=O)[C@H](CC(C)C)N(C)C(=O)C[C@@H](C(=O)N2CCCCC2)N(C)C(=O)[C@H](CC(C)C)N(C)C(=O)C2(CCCC2)NC(=O)[C@@H]2C[C@@H](OCc3ccccc3Cl)CN2C(=O)[C@H](CCc2ccc(C(F)(F)F)c(F)c2)NC(=O)CN(C)C(=O)[C@H](CC2CCCCC2)N(C)C(=O)CN(C)C(=O)CN(C)C1=O [Compound 2138] ([NMeL]I[Sar][Sar][NMeCha][Sar][hPhe(3-F,4-CF3)][Hyp](X27)[Ac5c][NMeL][NMeD]-Piperidide; lactam N-11) | 100 to 500
CC[C@H](C)[C@@H]1NC(=O)[C@H](CC(C)C)N(C)C(=O)C[C@@H](C(=O)N2CCCCC2)N(C)C(=O)[C@H](CC(C)C)N(C)C(=O)C2(CCCC2)NC(=O)[C@@H]2C[C@@H](OCc3ccccc3C)CN2C(=O)[C@H](CCc2ccc(C(F)(F)F)c(F)c2)NC(=O)CN(C)C(=O)[C@H](CC2CCCCC2)N(C)C(=O)CN(C)C(=O)CN(C)C1=O [Compound 2139] ([NMeL]I[Sar][Sar][NMeCha][Sar][hPhe(3-F,4-CF3)][Hyp](oXylylene)[Ac5c][NMeL][NMeD]-Piperidide; lactam N-11) | 100 to 500
CC[C@H](C)[C@@H]1NC(=O)[C@H](CC(C)C)N(C)C(=O)C[C@@H](C(=O)N2CCCCC2)N(C)C(=O)[C@H](CC(C)C)N(C)C(=O)C2(CCCC2)NC(=O)[C@@H]2C[C@H](OCc3ccc(C)cc3)CN2C(=O)[C@H](CCc2ccc(C(F)(F)F)c(F)c2)NC(=O)CN(C)C(=O)[C@H](CC2CCCCC2)N(C)C(=O)CN(C)C(=O)CN(C)C1=O [Compound 2140] ([NMeL]I[Sar][Sar][NMeCha][Sar][hPhe(3-F,4-CF3)][cisHyp](Meb)[Ac5c][NMeL][NMeD]-Piperidide; lactam N-11) | > 500
CC[C@H](C)[C@@H]1NC(=O)[C@H](CC(C)C)N(C)C(=O)C[C@@H](C(=O)N2CCCCC2)N(C)C(=O)[C@H](CC(C)C)N(C)C(=O)C2(CCCC2)NC(=O)[C@@H]2C[C@H](OCc3cccc(C)c3)CN2C(=O)[C@H](CCc2ccc(C(F)(F)F)c(F)c2)NC(=O)CN(C)C(=O)[C@H](CC2CCCCC2)N(C)C(=O)CN(C)C(=O)CN(C)C1=O [Compound 2141] ([NMeL]I[Sar][Sar][NMeCha][Sar][hPhe(3-F,4-CF3)][cisHyp](mXylylene)[Ac5c][NMeL][NMeD]-Piperidide; lactam N-11) | > 500
CC[C@H](C)[C@@H]1NC(=O)[C@H](CC(C)C)N(C)C(=O)C[C@@H](C(=O)N2CCCCC2)N(C)C(=O)[C@H](C2CCCCC2)N(C)C(=O)C2(CCCC2)NC(=O)[C@H](CCOC)N(C)C(=O)[C@H](CCc2ccc(C(F)(F)F)c(Cl)c2)NC(=O)CN(C)C(=O)[C@H](CC2CCCCC2)N(C)C(=O)CN(C)C(=O)CN(C)C1=O [Compound 2168] ([NMeL]I[Sar][Sar][NMeCha][Sar][hPhe(3-Cl-4-CF3)][NMehSer](Me)[Ac5c][NMeChg][NMeD]-Piperidide; lactam N-11) | 100 to 500
